Legend:
wild-type PR = details: read-out: Ki for PR, ref Park et al. 2016. Biochemistry [18]; cited from earlier work
PR^S17 = details: Ki for mutant/Ki for wild-type; ref Park et al. 2016. Biochemistry [18]; cited from earlier work
PRS5B [1] = target: PRS5B (Human immunodeficiency virus 1, UniProt P03367, A522V/A571V/C567A/C595A/E521D/E535N/G573T/I584V/L510I/L524M/M536I/N583D/Q507K/V511I, form not given); test: FRET-based enzyme kinetic inhibition assay; type: biochemical, HIV-1; details: read-out: Ki for PRS5B; FRET substrate, 50 mM MES pH 5.6, 37°C; mean ± SD (n=3–5)
isolate with PRS5B = details: ref Stanford HIV database; cited from earlier work
PRS5B [2] = test: FRET-based enzyme kinetic inhibition assay; type: biochemical, HIV-1; details: Ki for mutant/Ki for wild-type

Row | SMILES | Ki (wild-type PR) | PR^S17 Ki fold change (PR^S17) | Ki (PRS5B [1]) | resistance in PhenoSense assay (isolate with PRS5B) | PRS5B Ki fold change (PRS5B [2])
1 | CC(C)CN(C[C@@H](O)[C@H](Cc1ccccc1)NC(=O)O[C@H]1CCOC1)S(=O)(=O)c1ccc(N)cc1 [APV, amprenavir] | 0.2 nM | – | – | – | –
2 | COC(=O)N[C@H](C(=O)N[C@@H](Cc1ccccc1)[C@@H](O)CN(Cc1ccc(-c2ccccn2)cc1)NC(=O)[C@@H](NC(=O)OC)C(C)(C)C)C(C)(C)C [ATV, atazanavir] | 0.035 nM | 2,000 fold | 8.4 ± 0.9 nM | – | –
3 | CC(C)CN(C[C@@H](O)[C@H](Cc1ccccc1)NC(=O)O[C@H]1CO[C@H]2OCC[C@H]21)S(=O)(=O)c1ccc(N)cc1 [DRV, darunavir] | 0.005 nM | – | – | – | –
4 | CC(C)(C)NC(=O)[C@@H]1CN(Cc2cccnc2)CCN1C[C@@H](O)C[C@@H](Cc1ccccc1)C(=O)N[C@H]1c2ccccc2C[C@H]1O [IDV, indinavir] | 0.25 nM | – | – | – | –
5 | Cc1cccc(C)c1OCC(=O)N[C@@H](Cc1ccccc1)[C@@H](O)C[C@H](Cc1ccccc1)NC(=O)[C@H](C(C)C)N1CCCNC1=O [LPV, lopinavir] | 0.02 nM | 3,650 fold | 160 ± 10 nM | significant resistance, although not the highest level | 8,000 fold
6 | Cc1c(O)cccc1C(=O)N[C@@H](CSc1ccccc1)[C@H](O)CN1C[C@H]2CCCC[C@H]2C[C@H]1C(=O)NC(C)(C)C [NFV, nelfinavir] | 0.36 nM | – | – | – | –
7 | CC(C)(C)NC(=O)[C@@H]1C[C@@H]2CCCC[C@@H]2CN1C[C@@H](O)[C@H](Cc1ccccc1)NC(=O)[C@H](CC(N)=O)NC(=O)c1ccc2ccccc2n1 [SQV, saquinavir] | 0.39 nM | – | – | – | –
8 | CCC[C@@]1(CCc2ccccc2)CC(O)=C([C@H](CC)c2cccc(NS(=O)(=O)c3ccc(C(F)(F)F)cn3)c2)C(=O)O1 [TPV, tipranavir] | – | – | 8.6 ± 1.2 nM | – | –

From PMC7343616 (The FEBS journal, 2020)
